The source of these data is ChEMBL document CHEMBL1201862, “PubChem BioAssay data set” (2004).

A word on the GI50: it is the concentration at which growth is held to half of that of the control.

Some test systems named below: NCI-H23; ACHN; HCC 2998; M14; HCT-116; NCI-H460; OVCAR-4; UO-31; SW-620; SK-MEL-5; MOLT-4; A549; MDA-MB-231; HT-29; SF-539; MDA-MB-435; HL-60; K562; Hs-578T; LOX IMVI.
Common to all, as to test: DTP human tumour cell line panel, 48 h

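Briefly, cells in 96-well plates were exposed to five compound concentrations for 48 h, and endpoints were estimated by linear interpolation. GI50: concentration for 50% inhibition of growth.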 The source made the active and inactive calls. Rule as the data show it: active = GI50 up to about 1.1 µM and inactive = higher. Residues, ends and D or L forms follow the SMILES beside them. *: point of attachment. Cbz = O=C(OCc1ccccc1)*

Regarding `CC(C)(C)OC(=O)N(CCCN)CCCCN`, the GI50 with NCI-H23, with ACHN, in the experiment with HCC 2998, in the experiment on M14, in the experiment with HCT-116 and in the experiment with NCI-H460 was > 100 µM (inactive) throughout. Further, the GI50 with OVCAR-4, in the experiment on UO-31, with SW-620, with SK-MEL-5, in the experiment with MOLT-4 and in the experiment on A549 was > 100 µM (inactive) each time. Further, the GI50 is 0.0673 µM (active) in the experiment with MDA-MB-231; > 100 µM (inactive) with HT-29; > 100 µM (inactive) in the experiment with SF-539; > 100 µM (inactive) in the experiment with MDA-MB-435; > 100 µM (inactive) with HL-60; > 100 µM (inactive) in the experiment with K562. For the same compound, the GI50 with Hs-578T was > 100 µM (inactive).

Consider `CCOC(=O)CCC(NC(=O)OCc1ccccc1)C(=O)NC(CCC(=O)OCC)C(=O)OCC` (configuration not stated) (Cbz-Glu(OEt)-Glu(OEt)-OEt; configuration not given here), for which the GI50 with NCI-H23, in the experiment on ACHN, in the experiment on LOX IMVI, in the experiment with HCC 2998, in the experiment with M14 and with HCT-116 was > 100 µM (inactive) throughout. For the same compound, the GI50 in the experiment with NCI-H460, in the experiment on OVCAR-4, in the experiment with UO-31, with SW-620, with SK-MEL-5 and in the experiment with MOLT-4 was > 100 µM (inactive) throughout. The GI50 with A549, with MDA-MB-231, with HT-29, in the experiment on SF-539, with MDA-MB-435 and with K562 was > 100 µM (inactive) in each case. Moreover, the GI50 with Hs-578T is > 100 µM (inactive).

Regarding `O=C1N=C(SC(SC2=NC(=O)C3(NN2)c2ccccc2-c2ccccc23)=C(SC2=NC(=O)C3(NN2)c2ccccc2-c2ccccc23)SC2=NC(=O)C3(NN2)c2ccccc2-c2ccccc23)NNC12c1ccccc1-c1ccccc12`, the GI50 in the experiment with NCI-H23 is 7.59 µM (inactive); with ACHN it was 2.07 µM (inactive); with LOX IMVI, > 10 µM (inactive); with HCC 2998, > 10 µM (inactive); in the experiment with M14, 8.71 µM (inactive); in the experiment with HCT-116 it was 5.55 µM (inactive). The GI50 in the experiment on NCI-H460 was 3.33 µM (inactive); in the experiment on OVCAR-4 it was 8.07 µM (inactive); in the experiment with UO-31 it was 3.18 µM (inactive); in the experiment on SW-620, > 10 µM (inactive); in the experiment with SK-MEL-5 it was 3.22 µM (inactive); in the experiment with MOLT-4, 0.437 µM (active). Also, the GI50 in the experiment on A549 was 6.65 µM (inactive); in the experiment with MDA-MB-231, 4.71 µM (inactive); in the experiment with HT-29, 6.61 µM (inactive); in the experiment on SF-539, > 10 µM (inactive); with MDA-MB-435, > 10 µM (inactive); in the experiment on K562 it was 5.11 µM (inactive). Further, the GI50 with Hs-578T is > 10 µM (inactive).

`COc1ccc2c(c1)nc1n2C(c2c(Cl)cccc2Cl)SC1` (configuration not stated): the GI50 in the experiment on NCI-H23 was 38.4 µM (inactive); in the experiment with ACHN it was 40.8 µM (inactive); in the experiment with LOX IMVI it was 25.8 µM (inactive); in the experiment on HCC 2998, 11.2 µM (inactive); in the experiment on M14 it was 12.4 µM (inactive); in the experiment with HCT-116, 7.85 µM (inactive). The GI50 was 12.1 µM (inactive) in the experiment on NCI-H460; > 46.6 µM (inactive) in the experiment with OVCAR-4; 46.5 µM (inactive) with UO-31; 5.02 µM (inactive) in the experiment on SK-MEL-5; > 21.6 µM (inactive) in the experiment with MOLT-4; 18 µM (inactive) in the experiment on A549. The GI50 with MDA-MB-231 was 29.3 µM (inactive); in the experiment with HT-29 it was 15.2 µM (inactive); in the experiment on SF-539 it was 9.1 µM (inactive); in the experiment with MDA-MB-435 it was 2.59 µM (inactive); in the experiment on K562 it was > 100 µM (inactive); in the experiment with Hs-578T it was 5.45 µM (inactive).

Turning to `O=c1[nH]c2ccccc2c2oc(-c3ccccc3)nc12`, the GI50 is 65.8 µM (inactive) with NCI-H23; > 100 µM (inactive) in the experiment on ACHN; 21.3 µM (inactive) in the experiment with LOX IMVI; > 100 µM (inactive) with HCC 2998; > 100 µM (inactive) with M14; 24 µM (inactive) in the experiment with HCT-116. In addition, the GI50 in the experiment with NCI-H460 was > 100 µM (inactive); with OVCAR-4, 60.7 µM (inactive); with UO-31, > 100 µM (inactive); with SW-620, 22.9 µM (inactive); in the experiment on SK-MEL-5, 30.5 µM (inactive); in the experiment on MOLT-4, 26.6 µM (inactive). For the same compound, the GI50 with A549 is 47.6 µM (inactive); in the experiment with MDA-MB-231, 17.3 µM (inactive); in the experiment with HT-29 it was > 100 µM (inactive); with SF-539, 16.7 µM (inactive); with MDA-MB-435, 18.4 µM (inactive); in the experiment on K562 it was 36.1 µM (inactive). Moreover, in the experiment with Hs-578T, the GI50 is 25.1 µM (inactive).

With `CCCC(=O)Nc1cc(/C=C/C(=O)N2CC(CCl)c3ccc([N+](=O)[O-])cc32)n(C)c1` (configuration not stated), the GI50 is > 100 µM (inactive) in the experiment with NCI-H23; 50.9 µM (inactive) with ACHN; 73.5 µM (inactive) in the experiment on LOX IMVI; 57.7 µM (inactive) in the experiment with HCC 2998; > 100 µM (inactive) in the experiment on M14; 56 µM (inactive) in the experiment with HCT-116. Also, the GI50 in the experiment on OVCAR-4 was > 100 µM (inactive); in the experiment with UO-31, > 100 µM (inactive); with SW-620, > 100 µM (inactive); in the experiment with A549, 58.3 µM (inactive); with MDA-MB-231 it was 21.6 µM (inactive); in the experiment with HT-29, 21.1 µM (inactive). Moreover, the GI50 in the experiment with SF-539 is 43.4 µM (inactive); in the experiment on MDA-MB-435, > 100 µM (inactive); in the experiment with K562 it was > 100 µM (inactive); with Hs-578T, 26.8 µM (inactive).

Turning to `CCOC(=O)C1=CC(C)(C(=O)OCC)Nc2c(nc(N)[nH]c2=O)N1` (configuration not stated), the GI50 in the experiment on NCI-H23, in the experiment with ACHN, with LOX IMVI, in the experiment on HCC 2998, in the experiment with M14 and in the experiment with HCT-116 was > 10 µM (inactive) in each case. Moreover, the GI50 in the experiment on NCI-H460, with OVCAR-4, in the experiment on UO-31, with SW-620, with SK-MEL-5 and in the experiment with MOLT-4 was > 10 µM (inactive) each time. In addition, the GI50 with A549, in the experiment on MDA-MB-231, with HT-29, in the experiment with SF-539, with MDA-MB-435 and with K562 was > 10 µM (inactive) in each case. Moreover, the GI50 in the experiment with Hs-578T was > 10 µM (inactive).

As for `COc1cc(C2S/C(=C/c3ccccc3)C(=O)N2Cc2ccccc2)cc(OC)c1OC` (configuration not stated), the GI50 in the experiment on NCI-H23 was 67.3 µM (inactive); in the experiment on ACHN, 64.7 µM (inactive); in the experiment with LOX IMVI it was 32.1 µM (inactive); in the experiment with HCC 2998, 21 µM (inactive); in the experiment with M14 it was 33.1 µM (inactive); in the experiment on HCT-116, 17.5 µM (inactive). For the same compound, the GI50 in the experiment on OVCAR-4 is 23.2 µM (inactive); in the experiment on UO-31, 24.4 µM (inactive); in the experiment on SK-MEL-5, 28.2 µM (inactive); with MOLT-4, 18.4 µM (inactive); in the experiment on A549, 27.3 µM (inactive); with MDA-MB-231, > 100 µM (inactive). Moreover, the GI50 in the experiment with HT-29 was 53.5 µM (inactive); in the experiment with MDA-MB-435, 25.5 µM (inactive); in the experiment on HL-60 it was 21.2 µM (inactive); in the experiment with K562, 21.8 µM (inactive); with Hs-578T, 30.2 µM (inactive).

For the compound `Fc1ccccc1-c1nn2c(C34CC5CC(CC(C5)C3)C4)nnc2s1`, the GI50 in the experiment with NCI-H23, in the experiment with ACHN, in the experiment with LOX IMVI, in the experiment on HCC 2998, with M14 and in the experiment on HCT-116 was > 100 µM (inactive) throughout. The GI50 in the experiment on NCI-H460, in the experiment with OVCAR-4, in the experiment with UO-31, in the experiment on SW-620, with SK-MEL-5 and in the experiment on MOLT-4 was > 100 µM (inactive) each time. Also, the GI50 in the experiment with A549, with MDA-MB-231, in the experiment with HT-29, with SF-539, with MDA-MB-435 and in the experiment on K562 was > 100 µM (inactive) in each case. Further, in the experiment on Hs-578T, the GI50 was > 100 µM (inactive).

With `N=c1oc2c(Cl)cc(Cl)cc2cc1C(=O)Nc1ccccn1`, the GI50 was 41.4 µM (inactive) with NCI-H23; 22 µM (inactive) in the experiment on ACHN; 81.5 µM (inactive) in the experiment on HCC 2998; 33.7 µM (inactive) in the experiment with M14; 41.1 µM (inactive) with HCT-116; 48.3 µM (inactive) with NCI-H460. Moreover, the GI50 with OVCAR-4 was 58.6 µM (inactive); with UO-31 it was 59 µM (inactive); in the experiment with SW-620 it was 43.6 µM (inactive); in the experiment with SK-MEL-5, > 100 µM (inactive); with MOLT-4, 8.24 µM (inactive); in the experiment with A549, 44.4 µM (inactive). Also, the GI50 in the experiment with MDA-MB-231 was 69.2 µM (inactive); in the experiment with HT-29, 91.2 µM (inactive); in the experiment on SF-539 it was 40.9 µM (inactive); with MDA-MB-435 it was 45.6 µM (inactive); in the experiment on HL-60, > 100 µM (inactive); in the experiment on K562 it was 71 µM (inactive). Also, the GI50 in the experiment on Hs-578T is 20.5 µM (inactive).

For the compound `CNc1nc(SC)nc2c1c(N)nn2C`, the GI50 in the experiment with NCI-H23, in the experiment with ACHN, with LOX IMVI, in the experiment on HCC 2998, with M14 and with HCT-116 was > 100 µM (inactive) in each case. Besides, the GI50 in the experiment on NCI-H460, in the experiment on OVCAR-4, in the experiment with UO-31, in the experiment with SW-620, in the experiment with SK-MEL-5 and in the experiment with MOLT-4 was > 100 µM (inactive) each time. The GI50 with A549 is > 100 µM (inactive); in the experiment on MDA-MB-231, > 100 µM (inactive); with HT-29 it was > 100 µM (inactive); in the experiment with MDA-MB-435, > 100 µM (inactive); with K562 it was > 100 µM (inactive); in the experiment with Hs-578T, 95.3 µM (inactive).
